# According to US9095134B2, “Antimicrobial compositions containing cationic active ingredients and quaternary sugar derived surfactants” (priority 2010, dated 2015):
# Tests used:
# S. aureus = assay: Time kill method (ASTM E 2315), log reduction of S. aureus; assay type: cell-based, S. aureus (ATCC 6538); details: 0.5% ADBAC Quat
# Experimental: (§1) • (a) Determination of Time Kill Activity: The activity of antimicrobial compositions was measured by the time kill method [ASTM E 2315 Standard Guide for Assessment of Antimicrobial Activity Using a Time Kill Procedure], whereby the survival of challenged organisms exposed to an antimicrobial test composition is […] as a function of time. In this test, a diluted aliquot of the composition is brought into contact with a known population of test bacteria for a specified time period at a specified temperature. The test composition is neutralized at the end of the time period, which arrests the antimicrobial activity of the composition. The percent or, alternatively, log reduction from the original bacteria population is calculated. In general, the time kill method is known to those skilled in the art. In addition, comparative data on the foam profile of representative systems is shown. • (b) The composition can be tested at any concentration from 0-100%. The choice of which concentration to use is at the discretion of the investigator, and suitable concentrations are readily determined by those skilled in the art. All testing if performed in triplicate, the results are combined, and the average log reduction is reported. • (c) The choice of contact time period also is at the discretion of the investigator. Any contact time period can be chosen. Typical contact times range from 15 second to 5 minutes, with 30 seconds and 1 minute being typical contact times. The contact temperature also can be any temperature, typically room temperature, or about 25 degrees Celsius. • (d) The microbial suspension, or test inoculum, is prepared by growing a microbial culture on any appropriate solid media (e.g., agar). The microbial population then is washed from the agar with sterile physiological saline and the population of the microbial suspension is adjusted to about 10^8 colony forming units per ml (cfu/ml). • (e) The table below lists the test microbial cultures used in the following tests and includes the name of the bacteria, the ATCC (American Type Culture Collection) identification number, and the abbreviation for the name of the organism used hereafter.
# (§2) S. aureus is a Gram positive bacteria, whereas, E. coli is a Gram negative bacteria.
# (§3) The log reduction is calculated using the formula: Log reduction=log10(numbers control)−log10(test sample survivors). Foam Height Determination
# E. coli = assay: Time kill method (ASTM E 2315), log reduction of E. coli; assay type: cell-based, Escherichia coli (ATCC 112229); details: 0.5% ADBAC Quat
# Experimental: as §1, §2, §3
# [1] = 1.95% w/w foam boosting agent, 1.25% Poly Trimoniumhydroxypropyl Cocoglucosides Chloride, 30 seconds exposure
# [2] = 3.0% w/w foam boosting agent, 1.25% Poly Trimoniumhydroxypropyl Cocoglucosides Chloride, 30 seconds exposure
# [3] = 4.2% w/w foam boosting agent, 1.25% Poly Trimoniumhydroxypropyl Cocoglucosides Chloride, 30 seconds exposure
# [4] = quaternized sugar-derived surfactant 1.25% w/w, 1.95% alkyl dimethyl amine oxide, 30 second exposure
substance,measurement,setting,value
Alkyl Dimethyl Amine Oxide,S. aureus Log Reduction,S. aureus; [1],>5.5 log
same,S. aureus Log Reduction,S. aureus; [2],>5.5 log
same,S. aureus Log Reduction,S. aureus; [3],>5.5 log
same,E. coli Log Reduction,E. coli; [1],>5.5 log
same,E. coli Log Reduction,E. coli; [2],>5.5 log
same,E. coli Log Reduction,E. coli; [3],>5.5 log
Cocoglucosides Hydroxypropyl-trimonium Chloride [TM8610],S. aureus Log Reduction,S. aureus; [4],>5.0 log
same,E. coli Log Reduction,E. coli; [4],>5.0 log
Lauridimonium-hydroxypropyl Cocoglucosides Chloride [L8610],S. aureus Log Reduction,S. aureus; [4],>5.0 log
same,E. coli Log Reduction,E. coli; [4],>5.0 log
Lauridimonium-hydroxypropyl Laurylglucosides Chloride [L1210],S. aureus Log Reduction,S. aureus; [4],>5.0 log
same,E. coli Log Reduction,E. coli; [4],>5.0 log
Laurylglucosides Hydroxypropyl-trimonium Chloride [TM1212],S. aureus Log Reduction,S. aureus; [4],>5.0 log
same,E. coli Log Reduction,E. coli; [4],>5.0 log
Stearyldimonium-hydroxypropyl Laurylglucosides Chloride [S1218],S. aureus Log Reduction,S. aureus; [4],>5.0 log
same,E. coli Log Reduction,E. coli; [4],>5.0 log
